In series [1] the test system is M. tuberculosis H37Rv. Kind of series: MIC determination, resazurin-based microplate assay. The series is classed as cell-based, Mycobacterium tuberculosis. The settings on record: Mycobacterium tuberculosis, single drug. A general note: Alamar Blue is a resazurin reagent that responds to reducing activity.
A short description of series [2]: In vivo pharmacokinetics in infected mice (plasma, LC-MS/MS). Also on record: species or system BALB/c mice. The settings on record: mouse; for AUC(0-t) / Cmax: po, steady state, infected mice. The protocol: The drugs were formulated in 0.5% hydroxypropyl methyl cellulose (HPMC)–0.1% Tween 80 suspensions as 3- or 4-drug combinations. Formulations were prepared by weighing and adding each compound to the bottle, according to the design. Formulation vehicle was added, and the suspension was stirred overnight. Only uniform suspensions were used, while those that precipitated were abandoned. Formulations were prepared every week, and compound stability was estimated at the end of the week. Pharmacokinetics (PK) analysis was performed on infected mice on the 20th day of dosing. Blood samples were collected from each mouse at 0.5, 2, 4, 6, and 24 h after compound administration. Blood samples of about 30 μl were collected from mice in all groups by serial sampling via the saphenous vein into Microvette CB300 tubes (Starstedt, Germany) coated with EDTA, and plasma (10 μl) was separated following centrifugation. Plasma samples were stored at –20°C until analysis using liquid chromatography-tandem mass spectrometry (LC-MS/MS).
A 1-mg/ml stock solution of each compound was prepared in dimethyl sulfoxide (DMSO) for all of the analytes except PZA and LZD, for which the stock solution was 10 mg/ml in DMSO, and RIF, for which the stock solution was prepared in 50% acetonitrile in water. Three different sets of calibration standard (CS) combinations were prepared by 2-fold dilution of the stock solutions. CS set 1 contained analytes CLO, BDQ, PA824, PZA, and SQ109, CS set 2 contained analytes BTZ043, MXF, THI, EMB, and PZA, and CS set 3 contained LZD, INH, RIF, and PZA. A 16-point calibration curve was utilized for all analytes, and the standard curves ranged from 0.0005 to 20 μg/ml except for PZA and LZD, for which the standard curve range was 0.006 to 200 μg/ml. Plasma samples were precipitated by adding chilled acetonitrile (1:10, vol/vol) containing carbamazepine as an internal standard (10 ng/ml). Samples were vortexed and then centrifuged at 4,000 rpm for 30 min at 10°C. The resulting supernatant was mixed with the mobile phase (50% acetonitrile in water with 0.1% formic acid). Five microliters of the sample was injected on to a liquid chromatographic system (Acquity ultraperformance liquid chromatography [UPLC] system, Waters, Milford, MA) coupled to a triple-quadrupole mass spectrometer (Xevo TQ-S; Waters, Milford, MA). Samples were separated on an LC column (ACE 3 C18, 50 by 4.6 mm, 3 μm particle size; Advanced Chromatography Technologies, Aberdeen, Scotland) by isocratic elution with 40 parts of 20 mM ammonium formate containing 0.1% (vol/vol) formic acid and 60 parts of acetonitrile at a flow rate of 0.5 ml/min with a run time of 4 min. Samples were acquired in positive ion mode and detected by multiple reaction monitoring (MRM). The concentrations of the analyte were determined from a standard curve obtained by plotting known concentrations of the analyte against peak area ratios (analyte/internal standard peak response).
PK analyses of the plasma concentration-time relationships were performed with Phoenix software (version 6.2; Pharsight, USA). A noncompartmental analysis program, model 200, was used to calculate PK parameters. The maximum concentration of drug in plasma (Cmax), time to Cmax (Tmax), elimination half-life (t1/2), and area under the concentration-time curve (AUC) from time zero to infinity (AUC0–∞) were estimated. AUC was computed using the trapezoidal rule (linear up and log down), and the AUC0–∞ was considered only when the extrapolated AUC was not more than 20% of the original value. A minimum of three sample points in the terminal slope were used to calculate half-life.

The test system of series [3] is M. tuberculosis H37Rv. Kind of series: In vitro bactericidal-effect analysis (CFU enumeration of checkerboard wells). Type of series: cell-based, Mycobacterium tuberculosis. The note with it: single drug at its MIC (FIC of 1); positive = reduction in CFU. The protocol:
For determining the extent of the bactericidal effect, sample wells which remained blue in the resazurin microtiter assay (REMA) and whose ΣFICs were within the synergistic-to-additive range (<0.7 for doublets and <1.5 for triplets) were plated on Middlebrook 7H10 agar medium and incubated at 37°C for 21 to 28 days, following which bacterial colonies were enumerated to obtain the net reduction in CFU in comparison to the counts for the untreated controls at the start of drug testing, as well as to that achieved when M. tuberculosis was exposed to each drug alone.

For series [4] the following is noted: tested individually; SQ109 at 25 mg/kg of body weight, EMB at 100-mg/kg dose; cited from earlier work.

Converted amounts (≈) assume the structure as drawn. Where two headings read alike, the source gives them in different places.

The text below walks through data of PMC4538536, “In Silico-Based High-Throughput Screen for Discovery of Novel Combinations for Tuberculosis Treatment” (Antimicrobial Agents and Chemotherapy, 2015).

What is called MIC is the smallest concentration in the dilution series that meets the test's criterion for growth inhibition. Low readings indicate inhibition by little substance, high ones a need for much substance. A word on the AUC: it is concentration integrated over time. In general, Cmax refers to the highest concentration seen after dosing.

For the compound `CC[C@@H](CO)NCCN[C@@H](CC)CO` [Ethambutol], 19.6 µM (≈ 4.01 µg/mL) was the least that counted as inhibitory in series [1] (MIC). Moreover, in series [2] (BALB/c, plasma, oral, SQ109 25 mg/kg, EMB 100 mg/kg, in 3- and 4-drug combinations, read-out: observed AUC in combinations), the AUC fell in the range of 4000 to 9900 ng·h/mL. For the same compound, the AUC(0-t) is 4100 ± 1400 ng·h/mL in series [2] (BALB/c, plasma, 25 mg/kg, Group 5 triplet EMB 100/BDQ 25/SQ109 25 mg/kg oral, read-out: AUC0-24 in Triplet); 9900 ± 1600 ng·h/mL in series [2] (BALB/c, plasma, 100 mg/kg, Group 8 triplet PA824 50/BDQ 25/EMB 100 mg/kg oral, read-out: AUC0-24 in Triplet); 7900 ± 2800 ng·h/mL in series [2] (BALB/c, plasma, 100 mg/kg, Ref. regimen triplet INH 30/RIF 10/EMB 100 mg/kg oral, read-out: AUC0-24 in Triplet); 9600 ± 1600 ng·h/mL in series [2] (BALB/c, plasma, 130 mg/kg, Group 9 triplet EMB 100/SQ109 25/LZD 130 mg/kg oral, read-out: AUC0-24 in Triplet); 4000 ± 1100 ng·h/mL in series [2] (BALB/c, plasma, 150 mg/kg, Group 5 quartet EMB 100/BDQ 25/SQ109 25/PZA 150 mg/kg oral, read-out: AUC0-24 in Quartet); 5700 ± 1100 ng·h/mL in series [2] (BALB/c, plasma, 150 mg/kg, Group 8 quartet PA824 50/BDQ 25/EMB 100/PZA 150 mg/kg oral, read-out: AUC0-24 in Quartet). Moreover, the AUC(0-t) in series [2] (BALB/c, plasma, 150 mg/kg, Ref. regimen quartet INH 30/RIF 10/EMB 100/PZA 150 mg/kg oral, read-out: AUC0-24 in Quartet) is 6600 ± 1800 ng·h/mL. The peak concentration (Cmax) in series [2] (BALB/c, plasma, 25 mg/kg, Group 5 triplet EMB 100/BDQ 25/SQ109 25 mg/kg oral, read-out: Cmax in Triplet) was 1300 ± 600 ng/mL; in series [2] (BALB/c, plasma, 100 mg/kg, Group 8 triplet PA824 50/BDQ 25/EMB 100 mg/kg oral, read-out: Cmax in Triplet) it was 2700 ± 200 ng/mL; in series [2] (BALB/c, plasma, 100 mg/kg, Ref. regimen triplet INH 30/RIF 10/EMB 100 mg/kg oral, read-out: Cmax in Triplet), 2200 ± 500 ng/mL; in series [2] (BALB/c, plasma, 130 mg/kg, Group 9 triplet EMB 100/SQ109 25/LZD 130 mg/kg oral, read-out: Cmax in Triplet) it was 1100 ± 200 ng/mL; in series [2] (BALB/c, plasma, 150 mg/kg, Group 5 quartet EMB 100/BDQ 25/SQ109 25/PZA 150 mg/kg oral, read-out: Cmax in Quartet), 1200 ± 500 ng/mL; in series [2] (BALB/c, plasma, 150 mg/kg, Group 8 quartet PA824 50/BDQ 25/EMB 100/PZA 150 mg/kg oral, read-out: Cmax in Quartet), 1500 ± 300 ng/mL. Further, in series [2] (BALB/c, plasma, 150 mg/kg, Ref. regimen quartet INH 30/RIF 10/EMB 100/PZA 150 mg/kg oral, read-out: Cmax in Quartet), the highest concentration (Cmax) turned out to be 1700 ± 600 ng/mL. Moreover, the “plasma exposure in combination compared with individual (reported) exposure” value in series [2] (in vivo) is “lower”. Besides, the “ΔLog10 CFU/ml at the MIC” value in series [3] was determined as 1.40 Log10 CFU/ml. For the same compound, the “reported AUC” value in series [4] is 28000 ng·h/mL.
